From ChEMBL document CHEMBL1201862, “PubChem BioAssay data set” (2004)
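Assay format: 96-well plates, 48-hour exposure. Here, GI50 denotes the concentration required for 50% inhibition of growth.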 Calls of active or inactive are those of the source. Rule as the data show it: active = GI50 up to about 1.1 µM and inactive = higher.

What was measured:
Assay in all cases: NCI-60 cell line screen, 48 h
SK-OV-3 = tested on: SK-OV-3
SN12C = tested on: SN12C
PC-3 = tested on: PC-3
NCI-H23 = tested on: NCI-H23
HT-29 = tested on: HT-29
OVCAR-8 = tested on: OVCAR-8
MOLT-4 = tested on: MOLT-4
NCI-H522 = tested on: NCI-H522
HOP-62 = tested on: HOP-62
SNB-75 = tested on: SNB-75
T47D = tested on: T47D
OVCAR-5 = tested on: OVCAR-5
K562 = tested on: K562
UACC-257 = tested on: UACC-257
RPMI-8226 = tested on: RPMI-8226
SNB-19 = tested on: SNB-19
HL-60 = tested on: HL-60
RXF 393 = tested on: RXF 393
IGROV-1 = tested on: IGROV-1
NCI-H226 = tested on: NCI-H226
786-0 = tested on: 786-0
A549 = tested on: A549
MCF7 = tested on: MCF7
OVCAR-3 = tested on: OVCAR-3
UO-31 = tested on: UO-31
HOP-92 = tested on: HOP-92
Hs-578T = tested on: Hs-578T
A498 = tested on: A498
SF-539 = tested on: SF-539
EKVX = tested on: EKVX
SF-268 = tested on: SF-268
CAKI-1 = tested on: CAKI-1
MDA-N = tested on: MDA-N
MDA-MB-435 = tested on: MDA-MB-435
NCI-H460 = tested on: NCI-H460
HCT-116 = tested on: HCT-116
NCI/ADR-RES = tested on: NCI/ADR-RES
BT-549 = tested on: BT-549
UACC-62 = tested on: UACC-62
M14 = tested on: M14
ACHN = tested on: ACHN
LOX IMVI = tested on: LOX IMVI
SW-620 = tested on: SW-620
KM12 = tested on: KM12
DU-145 = tested on: DU-145
U-251 = tested on: U-251
OVCAR-4 = tested on: OVCAR-4
Malme-3M = tested on: Malme-3M
SK-MEL-5 = tested on: SK-MEL-5
SF-295 = tested on: SF-295
COLO 205 = tested on: COLO 205
HCT-15 = tested on: HCT-15
TK-10 = tested on: TK-10
SR = tested on: SR
SK-MEL-2 = tested on: SK-MEL-2
CCRF-CEM = tested on: CCRF-CEM

`CCOC(=O)CCC(C(=O)OCC)n1nnc2cc(Nc3c(C)[n+]([O-])c4ccc(Cl)cc4[n+]3[O-])ccc21` (stereo unspecified) was tested. Which GI50 (SK-OV-3) did it give?
Its GI50 is > 100 µM (inactive).

And the GI50 (SN12C)?
The GI50 was 80.4 µM (inactive).

What about the GI50 (PC-3) of the same compound?
The GI50 was > 100 µM (inactive).

And the GI50 (NCI-H23)?
Its GI50 is 92 µM (inactive).

And the GI50 (HT-29)?
The GI50 was 67.8 µM (inactive).

What about the GI50 (OVCAR-8) of the same compound?
Its GI50 is > 100 µM (inactive).

What about the GI50 (MOLT-4) of the same compound?
The GI50 was 44.2 µM (inactive).

And the GI50 (NCI-H522)?
The GI50 was > 100 µM (inactive).

What about the GI50 (HOP-62) of the same compound?
Its GI50 is > 100 µM (inactive).

And the GI50 (SNB-75)?
The GI50 was 93.1 µM (inactive).

And the GI50 (T47D)?
Its GI50 is 39.9 µM (inactive).

And the GI50 (OVCAR-5)?
The GI50 was > 100 µM (inactive).

What about the GI50 (K562) of the same compound?
The GI50 was 69.3 µM (inactive).

And the GI50 (UACC-257)?
Its GI50 is 54.1 µM (inactive).

And the GI50 (RPMI-8226)?
Its GI50 is 47.2 µM (inactive).

And the GI50 (SNB-19)?
Its GI50 is > 100 µM (inactive).

What about the GI50 (HL-60) of the same compound?
The GI50 was 45 µM (inactive).

What about the GI50 (RXF 393) of the same compound?
The GI50 was 57.9 µM (inactive).

What about the GI50 (IGROV-1) of the same compound?
Its GI50 is > 100 µM (inactive).

What about the GI50 (NCI-H226) of the same compound?
The GI50 was 26.9 µM (inactive).

And the GI50 (786-0)?
Its GI50 is 98.4 µM (inactive).

And the GI50 (A549)?
The GI50 was > 100 µM (inactive).

And the GI50 (MCF7)?
The GI50 was 34.2 µM (inactive).

And the GI50 (OVCAR-3)?
Its GI50 is 40.4 µM (inactive).

And the GI50 (UO-31)?
The GI50 was 65.5 µM (inactive).

What about the GI50 (HOP-92) of the same compound?
Its GI50 is 50.8 µM (inactive).

What about the GI50 (Hs-578T) of the same compound?
Its GI50 is > 100 µM (inactive).

What about the GI50 (A498) of the same compound?
Its GI50 is > 100 µM (inactive).

What about the GI50 (SF-539) of the same compound?
The GI50 was 82.4 µM (inactive).

What about the GI50 (EKVX) of the same compound?
The GI50 was 23.2 µM (inactive).

And the GI50 (SF-268)?
The GI50 was 34.8 µM (inactive).

What about the GI50 (CAKI-1) of the same compound?
The GI50 was 57 µM (inactive).

What about the GI50 (MDA-N) of the same compound?
Its GI50 is > 100 µM (inactive).

What about the GI50 (MDA-MB-435) of the same compound?
The GI50 was > 100 µM (inactive).

And the GI50 (NCI-H460)?
Its GI50 is 39.1 µM (inactive).

And the GI50 (HCT-116)?
Its GI50 is 69.5 µM (inactive).

What about the GI50 (NCI/ADR-RES) of the same compound?
Its GI50 is 47.1 µM (inactive).

What about the GI50 (BT-549) of the same compound?
Its GI50 is > 100 µM (inactive).

What about the GI50 (UACC-62) of the same compound?
Its GI50 is 63.5 µM (inactive).

And the GI50 (M14)?
Its GI50 is > 100 µM (inactive).

What about the GI50 (ACHN) of the same compound?
Its GI50 is 60.7 µM (inactive).

And the GI50 (LOX IMVI)?
The GI50 was 52.2 µM (inactive).

What about the GI50 (SW-620) of the same compound?
Its GI50 is > 100 µM (inactive).

What about the GI50 (KM12) of the same compound?
The GI50 was > 100 µM (inactive).

And the GI50 (DU-145)?
The GI50 was > 100 µM (inactive).

And the GI50 (U-251)?
Its GI50 is 80 µM (inactive).

What about the GI50 (OVCAR-4) of the same compound?
The GI50 was 79.8 µM (inactive).

What about the GI50 (Malme-3M) of the same compound?
Its GI50 is > 100 µM (inactive).

What about the GI50 (SK-MEL-5) of the same compound?
Its GI50 is 73.8 µM (inactive).

And the GI50 (SF-295)?
Its GI50 is 78 µM (inactive).

And the GI50 (COLO 205)?
The GI50 was 44.8 µM (inactive).

And the GI50 (HCT-15)?
Its GI50 is 53.7 µM.

And the GI50 (TK-10)?
The GI50 was > 100 µM (inactive).

And the GI50 (SR)?
Its GI50 is 48.6 µM (inactive).

And the GI50 (SK-MEL-2)?
Its GI50 is 99.1 µM (inactive).

And the GI50 (CCRF-CEM)?
The GI50 was 39.4 µM (inactive).
